26 molecules from PubChem BioAssay (NCI) can be followed below.

Several values for one entry are separate records, joined by “and”; a condition that tells them apart may be missing. Equal entries are not always repeated.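 Dose response: 5 concentrations. Exposure: 48 h. Format: 96-well plates. Endpoint: linear interpolation; highest concentration if not reached. The concentration for 50% growth inhibition is given as GI50. TGI is the concentration that stops growth completely.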

One test deals with NCI/ADR-RES ovarian. The test can be described thus: NCI anticancer screen, dose series, 48 h.
Molecule `COc1cc2c(cc1OC)C(=O)/C(=C/c1cc(C)c(O)c(C)c1)C2` had a TGI of over 100 µM.
With `CC(=O)CC(=O)c1cc2c(=O)oc(C)cc2oc1=O`, the TGI was over 37.5 µM.

Another test deals with HCT-116 colon. The test can be described thus: NCI anticancer screen, dose series, 48 h.
In turn, `C=CCCCC12CCCc3cccc(c31)NC2=O` (stereo not drawn) came in with a TGI of 26.4 µM.
Molecule `Cc1oc2nc(N(C)C)n3nnnc3c2c1C` returned a TGI of over 100 µM.
Still for that read-out and setting: the same measure for `C[C@@H]1C[C@H](O)[C@]2(O)O[C@@H]3C[C@@]4(C=O)[C@@H](CC=C5[C@@H]4CC[C@]4(C)[C@@H](C6=CC(=O)OC6)CC[C@]54O)C[C@H]3O[C@@H]2O1`: 0.036 µM; for `C[C@]12CC/C(=N\O)C=C1CC[C@@H]1[C@@H]2CC[C@]2(C)C(=N/O)/C(=C/c3cccnc3)C[C@@H]12`: over 100 µM.
Molecule `O=C1C(Cl)N(c2ccccc2)C1c1c[nH]c2ccccc12` (stereo not drawn) registered a TGI of over 100 µM.
Take `Cc1nc2nnc(C)n2c2c1C(=O)Nc1ccccc1N2`: the TGI is over 100 µM.
On to `O=C(OCc1ccccc1)OOC(=O)OCc1ccccc1`, for which the TGI is over 100 µM.
The same measure, in the same setting: the same measure for `O=C1CC(c2ccc([N+](=O)[O-])cc2)C2(C(=O)NC(=S)NC2=O)C(c2ccc([N+](=O)[O-])cc2)C1` (stereo not drawn): 32.4 µM; for `C(=Nc1ccc(-c2nc3ccccc3s2)cc1)c1ccco1`: over 100 µM.
On the same count and under the same terms, the same measure for `Cc1cccc(N(CCC#N)S(=O)(=O)c2ccccc2)c1`: over 100 µM.
As to `Cc1cc2cccc(Cl)c2nc1C(=O)c1ccccc1`, the TGI is over 100 µM.
Turning to `COc1cc([C@@H]2c3cc4c(cc3C[C@H]3COC(=O)[C@@H]32)OCO4)cc(OC)c1OC`, the GI50 is 0.0026 µM and 0.00848 µM.
In turn, `COc1cccc(-c2nc(-c3cnccn3)n(Cc3ccccc3)n2)c1` yielded a TGI of over 100 µM.
`CC(=O)Nc1ccc(Cl)c(Cl)c1` showed a TGI of over 100 µM.
The molecule `O=C1/C(=C/c2ccc(F)cc2)CNC/C1=C\c1ccc(F)cc1` returned a TGI of 0.915 µM.
`CCOc1ccc(N=C/C=C(\Cl)c2ccc3ccccc3c2)cc1` gave a TGI of 21.6 µM.
On to `O=C(CCc1ccc(O)cc1)c1c(O)cc(O)cc1OC1OC(CO)C(O)C(O)C1O` (stereo not drawn), for which the TGI was over 100 µM.
Regarding `CC(C)=CC1C(C(=O)O)C1(C)C` (stereo not drawn), the TGI is over 750 µM.
The same measure, in the same setting: the same measure for `CCOC(=O)C1CC(O)C(=O)N1C` (stereo not drawn): over 100 µM; for `COc1cccc(C2c3cc4c(cc3OC(N3CCCC3)C2C)OCO4)c1OC` (stereo not drawn): 5.99 µM; for `c1ccc(N=c2snc(-c3ccccc3)s2)cc1`: over 100 µM.
Consider `CC(=O)CC(=O)c1cc2c(=O)oc(C)cc2oc1=O`, for which the TGI is over 37.5 µM.
The same measure, in the same setting: the same measure for `OCc1ccccc1C1CSCSC1`: over 100 µM.

Another test has as its system ACHN renal. The test can be described thus: NCI anticancer screen, dose series, 48 h.
Take `C=CCCCC12CCCc3cccc(c31)NC2=O` (stereo not drawn): the TGI is 86.4 µM.
On the same count and under the same terms, the same measure for `Cc1oc2nc(N(C)C)n3nnnc3c2c1C`: over 100 µM; for `C[C@@H]1C[C@H](O)[C@]2(O)O[C@@H]3C[C@@]4(C=O)[C@@H](CC=C5[C@@H]4CC[C@]4(C)[C@@H](C6=CC(=O)OC6)CC[C@]54O)C[C@H]3O[C@@H]2O1`: 0.0821 µM; for `C[C@]12CC/C(=N\O)C=C1CC[C@@H]1[C@@H]2CC[C@]2(C)C(=N/O)/C(=C/c3cccnc3)C[C@@H]12`: 73.4 µM.
Regarding `Cc1nc2nnc(C)n2c2c1C(=O)Nc1ccccc1N2`, the TGI was over 100 µM.
Consider `O=C(OCc1ccccc1)OOC(=O)OCc1ccccc1`, for which the TGI is over 100 µM.
Molecule `O=C1CC(c2ccc([N+](=O)[O-])cc2)C2(C(=O)NC(=S)NC2=O)C(c2ccc([N+](=O)[O-])cc2)C1` (stereo not drawn) yielded a TGI of 40.4 µM.
For `CN1CCN(C(=S)N(C)C(=O)c2ccc(Cl)cc2)CC1`, the TGI is over 100 µM.
In turn, `C(=Nc1ccc(-c2nc3ccccc3s2)cc1)c1ccco1` showed a TGI of over 100 µM.
With `Cc1cccc(N(CCC#N)S(=O)(=O)c2ccccc2)c1`, the TGI is over 100 µM.
`Cc1cc2cccc(Cl)c2nc1C(=O)c1ccccc1` registered a TGI of over 100 µM.
In the case of `CC(=O)Nc1ccc(Cl)c(Cl)c1`, the TGI is over 100 µM.
Molecule `O=C1/C(=C/c2ccc(F)cc2)CNC/C1=C\c1ccc(F)cc1` yielded a TGI of 3.18 µM.
The molecule `CCOc1ccc(N=C/C=C(\Cl)c2ccc3ccccc3c2)cc1` registered a TGI of 32.7 µM.
The molecule `O=C(CCc1ccc(O)cc1)c1c(O)cc(O)cc1OC1OC(CO)C(O)C(O)C1O` (stereo not drawn) showed a TGI of over 100 µM.
With `CCOC(=O)C1CC(O)C(=O)N1C` (stereo not drawn), the TGI was over 100 µM.
Molecule `COc1cccc(C2c3cc4c(cc3OC(N3CCCC3)C2C)OCO4)c1OC` (stereo not drawn) had a TGI of 16.8 µM.
For the molecule `c1ccc(N=c2snc(-c3ccccc3)s2)cc1`, the TGI was over 100 µM.
`COc1cc2c(cc1OC)C(=O)/C(=C/c1cc(C)c(O)c(C)c1)C2`: the TGI was over 100 µM.
For the molecule `CCOC(=O)c1c(N)n(-c2ccccc2)c(=S)n(-c2ccccc2)c1=O`, the TGI was over 100 µM.
`CC(=O)CC(=O)c1cc2c(=O)oc(C)cc2oc1=O` came in with a TGI of over 37.5 µM.
`OCc1ccccc1C1CSCSC1`: the TGI is over 100 µM.

The next test concerns RXF 393 renal. As to the kind of experiment: NCI anticancer screen, dose series, 48 h.
`C=CCCCC12CCCc3cccc(c31)NC2=O` (stereo not drawn) came in with a TGI of 42.8 µM.
`Cc1oc2nc(N(C)C)n3nnnc3c2c1C`: the TGI is over 100 µM.
`O=C1C(Cl)N(c2ccccc2)C1c1c[nH]c2ccccc12` (stereo not drawn) gave a TGI of over 100 µM.
`Cc1nc2nnc(C)n2c2c1C(=O)Nc1ccccc1N2` yielded a TGI of over 100 µM.
The same measure, in the same setting: the same measure for `O=C(OCc1ccccc1)OOC(=O)OCc1ccccc1`: over 100 µM.
Same read-out and setting: next, `CN1CCN(C(=S)N(C)C(=O)c2ccc(Cl)cc2)CC1`: over 100 µM; `C(=Nc1ccc(-c2nc3ccccc3s2)cc1)c1ccco1`: over 100 µM; `Cc1cc2cccc(Cl)c2nc1C(=O)c1ccccc1`: over 100 µM.
For `COc1cc([C@@H]2c3cc4c(cc3C[C@H]3COC(=O)[C@@H]32)OCO4)cc(OC)c1OC`, the GI50 is 0.00723 µM and 0.0157 µM; the TGI was over 50 µM.
Consider `COc1cccc(-c2nc(-c3cnccn3)n(Cc3ccccc3)n2)c1`, for which the TGI is 64 µM.
The molecule `CC(=O)Nc1ccc(Cl)c(Cl)c1` yielded a TGI of over 100 µM.
The molecule `O=C1/C(=C/c2ccc(F)cc2)CNC/C1=C\c1ccc(F)cc1` gave a TGI of 3.41 µM.
Still for that read-out and setting: next, `CCOc1ccc(N=C/C=C(\Cl)c2ccc3ccccc3c2)cc1`: 34.1 µM.
The molecule `CC(C)=CC1C(C(=O)O)C1(C)C` (stereo not drawn) returned a TGI of over 750 µM.
The molecule `CCOC(=O)C1CC(O)C(=O)N1C` (stereo not drawn) displayed a TGI of over 100 µM.
`c1ccc(N=c2snc(-c3ccccc3)s2)cc1` yielded a TGI of over 100 µM.
As to `COc1cc2c(cc1OC)C(=O)/C(=C/c1cc(C)c(O)c(C)c1)C2`, the TGI came out at 0.439 µM.
`CCOC(=O)c1c(N)n(-c2ccccc2)c(=S)n(-c2ccccc2)c1=O` showed a TGI of over 100 µM.
`CC(=O)CC(=O)c1cc2c(=O)oc(C)cc2oc1=O` gave a TGI of over 37.5 µM.
Consider `OCc1ccccc1C1CSCSC1`, for which the TGI was over 100 µM.
